Assay results published in the NIST ThermoML archive (doi:10.1016/j.fluid.2015.09.050).

Conditions: Liquid, pendant drop method

C [methane] + O
Conditions | interfacial tension [mN/m]
311 K, 3390 kPa | 66.03
311 K, 7540 kPa | 59.95
311 K, 14380 kPa | 57.94
311 K, 28210 kPa | 52.29
311 K, 44730 kPa | 51.43
311 K, 61300 kPa | 49.28
311 K, 81600 kPa | 50.39
373.2 K, 3650 kPa | 54.76
373.2 K, 10070 kPa | 50.64
373.2 K, 21140 kPa | 48.29
373.2 K, 30540 kPa | 45.02
373.2 K, 51020 kPa | 42.2
373.2 K, 60310 kPa | 41.61
373.2 K, 71050 kPa | 41.92
373.2 K, 82760 kPa | 41.93
423.2 K, 2740 kPa | 49.23
423.2 K, 7290 kPa | 46.41
423.2 K, 17170 kPa | 42.69
423.2 K, 27790 kPa | 40.72
423.2 K, 38470 kPa | 38.35
423.2 K, 48440 kPa | 39.43
423.2 K, 62280 kPa | 38.6
423.2 K, 75910 kPa | 39.19
423.2 K, 89770 kPa | 38.67
473.2 K, 2410 kPa | 40.35
473.2 K, 14090 kPa | 34.86
473.2 K, 21220 kPa | 34.2
473.2 K, 34790 kPa | 32.44
473.2 K, 51540 kPa | 30.53
473.2 K, 70120 kPa | 31.46
473.2 K, 83440 kPa | 30.74
